In PubChem BioAssay AID463136 (University of Pittsburgh Molecular Library Screening Center, 2010) one finds IC50 and inhibition data, which are given here for 34 molecules.

Assay [1] relates to HCS imaging, dynein-mediated cargo transport inhibition. The assay can be described thus: blockers of dynein-driven microtubule transport – imaging, high-content imaging, dose response (AID 463136).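 Also: mouse mammary adenocarcinoma 3617.4 cells expressing GFP-tagged rat glucocorticoid receptor.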
Assay in assay [2]: as above
Particulars: HCS imaging, dynein-mediated cargo transport inhibition; inhibition at max concentration; at 50 µM; stronger effect = higher value.

Results filed as inconclusive are left out. The source made the active and inactive calls. No rule for the calls is given here.

A word on the IC50: it is the midpoint of a concentration-inhibition curve. Usually inhibition stands for the drop in the measured response relative to a control, in per cent. Take `CC1(C)C(=O)Nc2ccccc2N1C(=O)Cn1ncc(Cl)c(Cl)c1=O`: the IC50 in assay [1] is 12.3 µM. The inhibition in assay [2] is 71.9%.
With `Cc1cc(C(=O)Cn2ncc(Cl)c(Cl)c2=O)c(C)n1CC(F)(F)F`, in assay [1], the IC50 was 7.79 µM. For the same molecule, the inhibition in assay [2] was determined as 78.6%.
Take `Cc1ccc(C(=O)OCn2ncc(Cl)c(Cl)c2=O)cc1`: in assay [1], the half-inhibitory concentration (IC50) was 18.9 µM. Besides, in assay [2], the inhibition turned out to be 76.2%.
Take `Cc1nn(C)c(C(=O)Sc2cccc(Cl)c2)c1[N+](=O)[O-]`: the IC50 in assay [1] was > 50 µM (inactive). Besides, the inhibition in assay [2] stood at 10.5%.
In the case of `O=[N+]([O-])c1ccc(Sc2nnnn2-c2ccccc2)nc1`, the IC50 in assay [1] was 7.59 µM. The inhibition in assay [2] amounted to 81.6%.
In the same order, the values of `Cc1nc([N+](=O)[O-])c(Br)n1CC(=O)c1cccc([N+](=O)[O-])c1` are 9.94 µM and 91.4%.
In the case of `CC(=O)O[C@@H]1C[C@H]2C(C)(C)C(=O)C=C[C@]2(C)[C@H]2CC[C@@]3(C)[C@H](c4ccoc4)OC(=O)[C@H]4O[C@]43[C@@]21C`, the 50% inhibitory concentration (IC50) in assay [1] was 33.6 µM. For the same molecule, the inhibition in assay [2] was 77.9%.
In the same order, the values of `Cn1cc([N+](=O)[O-])c(C(=O)Nc2cc(Oc3ccccc3)cc([N+](=O)[O-])c2)n1` are > 50 µM (inactive) and 45.9%.
In the same order, the values of `COc1cc(NC(=O)Cn2ncc(Cl)c(Cl)c2=O)c(C)cc1[N+](=O)[O-]` are 7.75 µM and 64.6%.
Regarding `Cc1ccccc1NC(=O)C(Cl)=C(Cl)Cl`, the IC50 in assay [1] is 13.4 µM. Besides, the inhibition in assay [2] was 77.1%.
For the molecule `CC(=O)/C(=C/c1ccccc1)C(=O)Nc1ccccc1C`, in assay [1], the concentration for half-maximal inhibition (IC50) is 15.9 µM. In addition, the inhibition in assay [2] stood at 70.1%.
For `O=C(/C=C/c1ccncc1)c1ccc2c(c1)OCCO2`, the IC50 in assay [1] is 17.1 µM. Besides, in assay [2], the inhibition was found to be 72.4%.
For `C=CCN1C(=O)NC(=O)/C(=C/C=C/c2ccccc2)C1=O`, in that order: > 50 µM (inactive) and -33.3%.
Regarding `O=C1NC(=O)N(Cc2ccc(F)cc2)C(=O)/C1=C\C=C\c1ccco1`, the concentration for half-maximal inhibition (IC50) in assay [1] was 30.9 µM. For the same molecule, in assay [2], the inhibition came out at 74.8%.
Take `CN1CCN(C2=C(Cl)C(=O)C(c3cnc(N4CCCCC4)s3)=C(Cl)C2=O)CC1`: the IC50 in assay [1] was 33.3 µM. For the same molecule, in assay [2], the inhibition came to 94.7%.
For `CCOC(=O)C(=Cc1ccc(OCc2ccc([N+](=O)[O-])cc2)c(OC)c1)C(=O)OCC`, in that order: > 50 µM (inactive) and 2.92%.
For `CCOC(=O)C1=C(SCC)c2cc3c(n2C1=O)CCCC3`, in that order: > 50 µM (inactive) and 37.7%.
In the same order, the values of `Cc1ccc(C2=NN(C(=O)CCl)C(c3cccs3)C2)o1` (stereo not drawn) are 8.74 µM and 80.3%.
As for `O=C(CCl)N(c1ccc(Cl)cc1)c1c[nH]c2ccccc12`, the IC50 in assay [1] was > 50 µM (inactive). In addition, the inhibition in assay [2] came out at 10.3%.
For `CCCCNc1ccc2c3c(cccc13)C(=O)N(CCCC)C2=O`, in that order: > 50 µM (inactive) and 13.5%.
Consider `COc1ccccc1NS(=O)(=O)c1cc([N+](=O)[O-])ccc1N/N=C/c1c[nH]c2ccccc12`, for which the IC50 in assay [1] is > 50 µM (inactive). The inhibition in assay [2] was determined as 21.9%.
For `COc1cccc(/C(O)=C/c2nc3ccc(C(=O)NCCc4ccc(Cl)cc4)cc3[nH]c2=O)c1`, in that order: > 50 µM (inactive) and 32.4%.
For `O=C1/C(=C\c2cccnc2)CN(Cc2ccccc2)C/C1=C\c1cccnc1`, in that order: 15.5 µM and 83.3%.
In the same order, the values of `O=C(CCl)N(Cc1ccccc1)c1ccccc1` are 10 µM and 69.4%.
As for `O=[N+]([O-])c1ccc(NCc2ccccc2)c2nonc12`, the concentration for half-maximal inhibition (IC50) in assay [1] is 26.9 µM. Further, the inhibition in assay [2] came out at 99.5%.
In the case of `Cc1c(C#N)c(NC(=O)CCl)n(Cc2cccs2)c1C`, the half-maximal inhibitory concentration (IC50) in assay [1] is 24.7 µM. In addition, in assay [2], the inhibition is 69.2%.
Turning to `CCN(CC)c1ccc2cc(-c3nc(-c4ccc(OC)cc4)cs3)c(=O)oc2c1`, the IC50 in assay [1] was 25.7 µM. Moreover, in assay [2], the inhibition came to 98.4%.
In the same order, the values of `Cc1nc([N+](=O)[O-])c(Br)n1CC(=O)c1ccc(Br)cc1` are 14.7 µM and 82%.
For `Cn1cc(C(=O)CCl)c2ccccc21`, in that order: 22.5 µM and 75%.
As for `CCn1c(SCC(=O)N2CCOCC2)nc2oc3c(Cl)cc(Cl)cc3c(=O)c2c1=O`, in assay [1], the IC50 is 33 µM. In assay [2], the inhibition came out at 78.9%.
`CN(C)c1ccc(/C=C/C(=O)c2cccc(Br)c2)cc1`: the IC50 in assay [1] was > 50 µM (inactive). In assay [2], the inhibition was determined as 18.7%.
For `O=C(CCl)N(Cc1cccc([N+](=O)[O-])c1)c1cccc(Cl)c1`, in that order: 12.2 µM and 75%.
As for `Cc1cccc(Cn2ncc(Cl)c(Cl)c2=O)c1`, the IC50 in assay [1] is 13 µM. For the same molecule, the inhibition in assay [2] was 84.7%.
In the same order, the values of `CCn1c(=O)c([N+](=O)[O-])c(Cl)c2ccccc21` are 30.3 µM and 83.9%.
